The subject of series [1] is lambsquarter (Chenopodium album). The series can be described thus: Postemergence herbicidal activity. The format is in vivo. Particulars: post-emergent, 140 g ai/ha, after 14 days; for pest or weed control at 140 g/ha: Chenopodium album, post-emergence, 336 h, read-out: % Control CHEAL. An outline of the steps: (§1)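 Plants grown 7-21 days in greenhouse (about 15 h photoperiod, 23-29° C day, 22-28° C night) to first or second true leaf stage. Compounds in acetone/water/isopropanol/DMSO carrier with crop oil concentrate and Triton X-155 sprayed overhead at 187 L/ha; controls received solvent blank. Plants sub-irrigated afterwards; dose responses analysed by probit analysis.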

The test system of series [2] is redroot pigweed (Amaranthus retroflexus). The series can be described thus: Postemergence herbicidal activity. To be noted: post-emergent, 140 g ai/ha, after 14 days; for pest or weed control at 140 g/ha: Amaranthus retroflexus, post-emergence, 336 h, read-out: % Control AMARE. Format: in vivo. An outline of the steps:
as §1

Series [3] deals with velvetleaf (Abutilon theophrasti). The series can be described thus: Postemergence herbicidal activity. Format: in vivo. To be noted: post-emergent, 140 g ai/ha, after 14 days; for pest or weed control at 140 g/ha: Abutilon theophrasti, post-emergence, 336 h, read-out: % Control ABUTH. An outline of the steps: as §1
Series [4] has as its system Galium aparine. The series can be described thus: Postemergence herbicidal activity in cereal crops. Format: in vivo. Particulars: post-emergent, after 20-22 days; for pest or weed control at 17.5 g/ha / pest or weed control at 35 g/ha: Galium aparine, post-emergence, 480 h, read-out: % Control GALAP; for pest or weed control at 17.5 g/ha: 17.5 g ai/ha; for % Control GALAP: 70 g ai/ha; for pest or weed control at 35 g/ha: 35 g ai/ha. The protocol: (§2) When required to ensure good germination and healthy plants, a fungicide treatment and/or other chemical or physical treatment was applied. The plants were grown for 7-36 days in a greenhouse with an approximate 14 hour photoperiod which was maintained at about 18° C. during the day and 17° C. during the night. Nutrients and water were added on a regular basis and supplemental lighting was provided with overhead metal halide 1000-Watt lamps as necessary. The plants were employed for testing when they reached the second or third true leaf stage. […] The concentrated stock solutions obtained were diluted with 16 mL of an aqueous mixture containing acetone, water, isopropyl alcohol, DMSO, Agri-dex crop oil concentrate, and Triton® X-77 surfactant in a 64.7:26.0:6.7:2.0:0.7:0.01 v/v ratio to obtain spray solutions containing the highest application rates. […] Compound requirements are based upon a 12 mL application volume at a rate of 187 L/ha. Formulated compounds were applied to the plant material with an overhead Mandel track sprayer equipped with a […] nozzles calibrated to deliver 187 L/ha over an application area of 0.503 square meters at a spray height of 18 inches (43 cm) above average plant canopy height. Control plants were sprayed in the same manner with the blank. The treated plants and control plants were placed in a greenhouse as described above and watered by sub-irrigation to prevent wash-off of the test compounds.

Series [5] concerns Lamium purpureum. The series can be described thus: Postemergence herbicidal activity in cereal crops. Format: in vivo. Particulars: post-emergent, after 20-22 days; for pest or weed control at 17.5 g/ha / pest or weed control at 35 g/ha: Lamium purpureum, post-emergence, 480 h, read-out: % Control LAMPU; for pest or weed control at 17.5 g/ha: 17.5 g ai/ha; for % Control LAMPU: 70 g ai/ha; for pest or weed control at 35 g/ha: 35 g ai/ha. The protocol: as §2

Series [6] deals with Papaver rhoeas. The series is described as follows: Postemergence herbicidal activity in cereal crops. The format is in vivo. To be noted: post-emergent, after 20-22 days; for pest or weed control at 17.5 g/ha / pest or weed control at 35 g/ha: Papaver rhoeas, post-emergence, 480 h, read-out: % Control PAPRH; for pest or weed control at 17.5 g/ha: 17.5 g ai/ha; for % Control PAPRH: 70 g ai/ha; for pest or weed control at 35 g/ha: 35 g ai/ha. As to the method: as §2

Series [7] relates to Veronica persica. The series is described as follows: Postemergence herbicidal activity in cereal crops. To be noted: post-emergent, after 20-22 days; for pest or weed control at 17.5 g/ha / pest or weed control at 35 g/ha: Veronica persica, post-emergence, 480 h, read-out: % Control VERPE; for pest or weed control at 17.5 g/ha: 17.5 g ai/ha; for % Control VERPE: 70 g ai/ha; for pest or weed control at 35 g/ha: 35 g ai/ha. The format is in vivo. The protocol: as §2

Series [8] has as its system barley (Hordeum vulare). The series is described as follows: Postemergence herbicidal activity in cereal crops. Format: in vivo. Particulars: crop, post-emergent, after 20-22 days; for pest or weed control at 17.5 g/ha / pest or weed control at 35 g/ha: Hordeum, post-emergence, 480 h, read-out: % Control HORVS; for pest or weed control at 17.5 g/ha: 17.5 g ai/ha; for % Control HORVS: 70 g ai/ha; for pest or weed control at 35 g/ha: 35 g ai/ha. As to the method: as §2

For series [9], the system named is wheat (Triticum aestivum). The series can be described thus: Postemergence herbicidal activity in cereal crops. Format: in vivo. Particulars: crop, post-emergent, after 20-22 days; for plant injury at 17.5 g/ha / plant injury at 35 g/ha: Triticum aestivum, post-emergence, 480 h, read-out: % Control TRZAS; for plant injury at 17.5 g/ha: 17.5 g ai/ha; for % Control TRZAS: 70 g ai/ha; for plant injury at 35 g/ha: 35 g ai/ha. The protocol:
as §2

Series [10] has as its system lambsquarter (Chenopodium album). The series is described as follows: Preemergence herbicidal activity. The format is in vivo. Particulars: Chenopodium album, pre-emergence, 480 h; pre-emergent, 140 g ai/ha, after 20-22 days; read-out: % Control CHEAL. An excerpt: (§3) Seeds of the desired test plant species were planted in a soil matrix prepared by mixing a loam soil (43 percent silt, 19 percent clay, and 38 percent sand, with a pH of about 8.1 and an organic matter content of about 1.5 percent) and sand in a 70 to 30 ratio. The soil matrix was contained in plastic pots with a surface area of 113 square centimeters. When required to ensure good germination and healthy plants, a fungicide treatment and/or other chemical or physical treatment was applied. […] Compound requirements are based upon a 12 mL application volume at a rate of 187 L/ha. Formulated compounds were applied to the plant material with an overhead Mandel track sprayer equipped with a […] nozzles calibrated to deliver 187 L/ha over an application area of 0.503 square meters at a spray height of 18 inches (43 cm) above the soil surface. Control plants were sprayed in the same manner with the solvent blank. The treated pots and control pots were placed in a greenhouse maintained with an approximate 15 hour photoperiod and temperatures of about 23-29° C. during the day and 22-28° C. during the night. Nutrients and water were added on a regular basis and supplemental lighting was provided with overhead metal halide 1000-watt lamps as necessary. The water was added by top-irrigation.

The subject of series [11] is redroot pigweed (Amaranthus retroflexus). The series can be described thus: Preemergence herbicidal activity. To be noted: Amaranthus retroflexus, pre-emergence, 480 h; pre-emergent, 140 g ai/ha, after 20-22 days; read-out: % Control AMARE. Format: in vivo.
Description: as §3

Series [12] relates to velvetleaf (Abutilon theophrasti). The series is described as follows: Preemergence herbicidal activity. The format is in vivo. To be noted: Abutilon theophrasti, pre-emergence, 480 h; pre-emergent, 140 g ai/ha, after 20-22 days; read-out: % Control ABUTH.
Description: as §3

For `CCCCOCCOC(=O)c1nc(-c2ccc(Cl)c(OC)c2F)cc(N)c1Cl` [Compound 87, 4-Amino-3-chloro-6-(4-chloro-2-fluoro-3-methoxyphenyl)pyridine-2-carboxylic acid, 2-butoxy-ethyl ester], the pest or weed control at 140 g/ha in [1], in [2] and in series [3] was 100% each time. For the same molecule, the pest or weed control at 17.5 g/ha in series [4] came to 100%; in series [5], 100%; in [6], 100%; in series [7], 50%; in [8] it was 0%. The plant injury at 17.5 g/ha in series [9] stood at 0%.
Turning to `COC(=O)c1nc(-c2ccc(C)c(OC)c2F)cc(N)c1Cl` [Compound 36, 4-amino-3-chloro-6-(2-fluoro-3-methoxy-4-methylphenyl) pyridine-2-carboxylic acid, methyl ester], the “% Control CHEAL” value in series [1] was determined as 100%. The “% Control AMARE” value in series [2] was found to be 100%. The “% Control ABUTH” value in series [3] is 100%. The “% Control GALAP” value in series [4] turned out to be 95%. Further, the “% Control LAMPU” value in [5] is reported as 99%. Also, the “% Control PAPRH” value in series [6] worked out at 99%. Besides, the “% Control VERPE” value in [7] is recorded as 50%. In series [8], the “% Control HORVS” value was determined as 0%. For the same molecule, the “% Control TRZAS” value in [9] is 5%.
For `COC(=O)c1nc(-c2ccc(Cl)c(C(F)C(F)(F)F)c2F)cc(N)c1Cl` (centres unmarked) [Compound 65, 4-Amino-3-chloro-6-[4-chloro-2-fluoro-3-(1,2,2,2-tetrafluoroethyl)phenyl)-pyridine-2-carboxylic acid, methyl ester], the figures for the pest or weed control at 140 g/ha in [1], in series [2] and in series [3] were 90%, 100% and 95%, respectively. The pest or weed control at 35 g/ha came out at 85% in series [4]; 95% in series [5]; 90% in series [6]; 40% in [7]; 5% in series [8]. Further, the plant injury at 35 g/ha in [9] was 15%.
As for `COC(=O)c1nc(-c2c(F)cc(F)c(OC)c2F)cc(N)c1Cl` [Compound 56, 4-Amino-3-chloro-6-(2,4,6-trifluoro-3-methyoxyphenyl)pyridine-2-carboxylic acid, methyl ester], in [1], the “% Control CHEAL” value was found to be 100%. Further, the “% Control AMARE” value in series [2] came out at 100%. The “% Control ABUTH” value in series [3] is 100%. Moreover, the “% Control GALAP” value in series [4] stood at 100%. For the same molecule, the “% Control LAMPU” value in series [5] was found to be 99%. Besides, the “% Control PAPRH” value in [6] is listed as 100%. For the same molecule, the “% Control VERPE” value in series [7] came to 95%. Moreover, the “% Control HORVS” value in series [8] is 10%. In addition, the “% Control TRZAS” value in [9] worked out at 0%.
With `COc1c(Cl)cc(F)c(-c2cc(N)c(Cl)c(C(=O)O)n2)c1F` [Compound 133, 4-Amino-3-chloro-6-(4-chloro-2,6-difluoro-3-methoxyphenyl)pyridine-2-carboxylic acid], the pest or weed control at 17.5 g/ha in [4] was 100%; in series [5] it was 99%; in series [6] it was 100%; in series [7], 70%; in [8] it was 0%. Further, the plant injury at 17.5 g/ha in [9] worked out at 0%.
What is called melting point is the temperature, or range, at which the solid turns liquid. `CCc1c(Cl)ccc(-c2cc(N)c(Cl)c(C(=O)OC)n2)c1F` [Compound 64, 4-Amino-3-chloro-6-(4-chloro-3-ethyl-2-fluorophenyl)pyridine-2-carboxylic acid, methyl ester] gave a melting point of 120 to 122 °C. Also, in series [1], the pest or weed control at 140 g/ha is 100%. For the same molecule, in series [2], the pest or weed control at 140 g/ha was found to be 100%. In addition, the pest or weed control at 140 g/ha in series [3] stood at 95%. In series [10], the pest or weed control at 140 g/ha is 100%. In addition, in [11], the pest or weed control at 140 g/ha is 100%. Besides, the pest or weed control at 140 g/ha in series [12] came to 80%.
For `COC(=O)c1nc(-c2c(F)cc(C)c(OC)c2F)cc(N)c1Cl` [Compound 51, 4-Amino-3-chloro-6-(2,6-difluoro-3-methoxy-4-methylphenyl)pyridine-2-carboxylic acid, methyl ester], the pest or weed control at 140 g/ha in [1], in series [2] and in series [3] was 100% in each case. Besides, the pest or weed control at 35 g/ha in [4] turned out to be 95%; in [5] it was 70%; in series [6] it was 100%; in [7], 30%; in series [8], 0%. The plant injury at 35 g/ha in [9] is 0%.
Molecule `COCc1c(Cl)ccc(-c2cc(N)c(Cl)c(C(=O)OC)n2)c1F` [Compound 3, 4-Amino-3-chloro-6-(4-chloro-2-fluoro-3-methoxymethylphenyl)pyridine-2-carboxylic acid methyl ester] had a melting point of 116 to 117 °C. The pest or weed control at 140 g/ha in series [1] came to 80%. The pest or weed control at 140 g/ha in series [2] was 100%. In series [3], the pest or weed control at 140 g/ha was determined as 100%. For the same molecule, in series [10], the pest or weed control at 140 g/ha was determined as 95%. Further, the pest or weed control at 140 g/ha in [11] stood at 100%. The pest or weed control at 140 g/ha in series [12] is 98%.

The values are drawn from patent publication US20070179060A1, “6-(Poly-substituted aryl)-4-aminopicolinates and their use as herbicides” (priority 2006, published 2007).
